Test results as given in patent US12084431B2, “Pharmaceutical salts of pyrimidine derivatives and method of treating disorders” (ARIAD Pharmaceuticals, Inc., priority 2018, dated 2024).
Like-named read-outs stand apart in the source and are kept apart here.

Legend:
[1] = Clinical pharmacokinetics in NSCLC patients, oral once daily; type: in vivo, human; conditions: for half-life: human, plasma, po
Experimental: Clinical PK data includes data from the dose escalation portion of the study. Compound (A) has been administered orally once per day in 28-day treatment cycles at dose levels of 5, 10, 20, 40, 80, 120, 160 and 180 mg. […] The dosage identified in milligrams (mg) is based on the weight of the freebase of Compound (A). FIGS. 33, 34 show the mean plasma concentration-time profiles of Compound (A) following oral administration of Compound (A) once per day in NSCLC patients.
Compound (A) is administered orally on an empty stomach once per day continuously.

[2] = Single rising dose study in healthy subjects (safety, food effect, relative bioavailability); type: in vivo, human
Text: This study is a randomized, double-blind, placebo-controlled single rising dose study (Part 1), followed by an open-label, crossover evaluation of the effects of a low-fat meal on the pharmacokinetics (PK) of Compound (A) (Part 2), and a crossover evaluation of the relative bioavailability of Compound (A) drug-in-capsule (DiC) (test) versus DiC (reference) in healthy subjects (Part 3).

[3] = test system: advanced NSCLC (EGFR exon 20 insertions); assay: Phase 1/2 study, antitumor activity / disease assessment by RECIST v1.1; type: in vivo, human
Experimental: 52 patients were enrolled as of 30 Jan. 2018.
Disease stabilization started to be reported at the 40 mg QD cohort. Disease assessments for patients who had at least one disease assessment following treatment with Compound (A) are shown in Table 21. All patients who responded have EGFR exon 20 insertion mutations and had previously been treated with platinum-based chemotherapy, EGFR TKIs, or PD-1 inhibitors.

[4] = Phase 1/2 study, safety (adverse events, dose limiting toxicities, MTD)
Experimental: Patients with advanced NSCLC refractory to standard therapy received daily oral doses (5-120 mg) of Compound (A) in the dose-escalation phase. Compound (A) was provided as polymorphic Form-I of the succinate salt of Compound (A). Compound (A) was formulated as a drug-in-capsule with no excipients and administered orally. Preliminary antitumor activity (by RECIST v1.1), safety and pharmacokinetics are reported for patients receiving at least one dose.
As part of the same phase ½ study as described in Example 12, a dose escalation study was performed. […] 2018.
The phase 2 portion of the study was initiated to expand the study in two 160 mg QD cohorts (EGFR exon 20 mutant NSCLC patients with or without brain metastases) and continue to enroll more patients in the 120 mg cohort.

[5] = Vapour sorption analysis (GVS, hygroscopicity); type: physicochemical; conditions: % uptake at 90% RH
Experimental: Approximately 10 mg of the sample was placed into a mesh vapor sorption balance pan and loaded into an IGASorp Moisture Sorption Analyzer balance by Hiden Analytical. The sample was subjected to a ramping profile from 40 to 90% relative humidity (RH) at 10% increments to 90% RH, maintaining the sample at each step until a stable weight had been achieved (98% step completion). After completion of the sorption cycle, the sample was dried using the same procedure (initially from 90% RH to 0% RH and finally taken back to the starting point of 40% RH). The sorption/desorption profiles were then repeated to give a double-cycle plot. The weight changes during the sorption/desorption cycles were plotted, allowing for the hygroscopic nature of the sample to be determined.

[6] = Thermodynamic aqueous solubility studies (de-ionized water, 24 h, HPLC concentration, filtrate pH, XRPD of solid); conditions: pH of filtrate after 24 h slurry in de-ionized water (pH 6.97), ambient temperature
Experimental: (§1) The resulting solid material was isolated by centrifugation and analyzed by XRPD, while the filtrate was analyzed by HPLC for concentration determination. The pH of the resulting filtrate was also determined.

physchem = conditions: pH 6.97, water, thermodynamic from solid
Experimental: as §1

[7] = Stability stress testing (ambient light, 40° C./75% RH, 80° C., 7 days; XRPD and HPLC purity); type: physicochemical
Experimental: Approximately 5 mg of the appropriate samples were placed into 2 mL clear glass vials and the vials were all stored open under the conditions of ambient light, 40° C./75% RH, and 80° C. for 7 days, respectively. The ambient light sample was left open on the bench at room temperature. The 80° C. sample was placed open into an 80° C. oven.

[8] = 80 mg QD cohort, oral, NSCLC patients, RECIST v1.1
[9] = 120 mg QD cohort, oral, NSCLC patients, RECIST v1.1

In the case of `C=CC(=O)Nc1cc(Nc2ncc(C(=O)OC(C)C)c(-c3cn(C)c4ccccc34)n2)c(OC)cc1N(C)CCN(C)C` [Compound (A), propan-2-yl 2-[5-(acryloylamino)-4-{[2-(dimethylamino)ethyl](methyl)amino}-2-methoxyanilino]-4-(1-methyl-1H-indol-3-yl)pyrimidine-5-carboxylate], the “accumulation, peak/trough ratio and molar metabolite/parent Cav ratios of the two active metabolites versus dose” value ([1]; 5 to 180 mg QD, suggesting no obvious trend of time-dependent inhibition or auto-induction) is reported as “independent of Compound (A) dose”, the “AUC24 dependence on dose” value ([1]; Cycle 2 Day 1, multiple dose, 5 to 180 mg QD) is reported as “increased in an approximately dose-proportional manner” and the “AUC0-24,ss dependence on dose” value ([1]; NSCLC patients, daily oral doses 5-120 mg, first results) is reported as “increased in a dose-proportional manner”. It also gave a half-life ([1]; NSCLC patients, daily oral doses 5-120 mg, first results, read-out: effective t1/2 (converted)) of roughly 16 h, a half-life ([1]; oral QD, NSCLC patients, read-out: effective half-life based on accumulation, geometric mean (converted)) of roughly 15 h and a half-life ([1]; oral QD, NSCLC patients, read-out: effective half-life based on accumulation, range) of 6 to 27 h. The “accumulation in AUC24” value ([1]; oral QD) was “approximately 1.5 fold”, the SAEs [2] was “No SAEs were reported” and the safety and tolerability ([2]; up to a single oral dose of 160 mg) was “safe and well tolerated”. The “Disease assessments: SD (stable disease), number of patients” value (“Disease assessments: SD (stable disease)” for short) ([3]; 40 mg QD cohort, oral, NSCLC patients, RECIST v1.1) was 3 patients, the “additional patients with SD” value ([3]; 80 mg QD and above, including 1 at 180 mg QD) was 6 patients and the objective response ([3]; 80 mg QD and above, 2 confirmed PR at 80 mg QD, 1 confirmed complete response at 120 mg QD, 2 PR awaiting confirmation at 160 mg QD) was 5 patients. The “Disease assessments: PR (partial response), number of patients” value [3, 8] was 2 patients, the “Disease assessments: SD (stable disease)” value [3, 8] was 2 patients and the “Disease assessments: CR (complete response), number of patients” value [3, 9] was 1 patient. The “Disease assessments: SD (stable disease)” value [3, 9] was 2 patients, the “Disease assessments: SD (stable disease)” value ([3]; 160 mg QD cohort, oral, NSCLC patients, RECIST v1.1) was 1 patient and the “Disease assessments: PR (partial response), number of patients” value ([3]; 160 mg QD cohort, oral, NSCLC patients, RECIST v1.1, unconfirmed) was 2 patients ^a. For the same compound, the “discontinuation for documented progressive disease (PD) per RECIST version 1.1, patients” value ([3]; 52 patients, data cut) was 26.9%, the “progressive disease (PD) as best response” value ([3]; of 14 evaluable patients, 40 mg n=3, 80 mg n=1, 120 mg n=1) was 5 patients and the “stable disease (SD) as best response” value ([3]; of 14 evaluable patients, 40 mg n=3, 80 mg n=2, 120 mg n=1) was 6 patients. The “partial response (PR) as best response” value ([3]; of 14 evaluable patients, 80 mg n=2 both confirmed, 120 mg single PR awaiting confirmation) was 3 patients, the “response (PR, CR) versus prior treatment” value ([3]; prior therapies including EGFR TKIs and immuno-oncology agents) was “observed in patients regardless of prior treatment therapies” and the “maximum tolerated dose (MTD)” value ([4]; QD, oral, NSCLC patients, dose escalation 5-180 mg QD and 40 mg BID) was 160 mg. For the same compound, the “discontinuation for adverse event (AE), patients” value ([4]; human, in vivo) was 15.4%, the “patients with Grade 3 TEAEs” value ([4]; human, in vivo) was 51.9% and the “patients with at least 1 treatment-emergent serious adverse event (SAE)” value ([4]; human, in vivo) was 38.5%. The “patients with at least 1 treatment-related SAE” value ([4]; human, in vivo) was 9.6%, the “patients with at least 1 treatment-related adverse event (TRAE)” value ([4]; human, in vivo) was 78.8% and the “patients with at least one TEAE” value ([4]; human, in vivo) was 88.5%. For the same compound, the dose limiting toxicities ([4]; in vivo) was “Two dose limiting toxicities, both pneumonitis”.
In the case of `C=CC(=O)Nc1cc(Nc2ncc(C(=O)OC(C)C)c(-c3cn(C)c4ccccc34)n2)c(OC)cc1N(C)CCN(C)C.Cc1ccc(S(=O)(=O)O)cc1` [Tosylate, isopropyl 2-((5-acrylamido-4-((2-(dimethylamino)ethyl) (methyl)amino)-2-methoxyphenyl)amino)-4-(1-methyl-1H-indol-3-yl)pyrimidine-5-carboxylate tosylate], the “GVS (Hygroscopicity)” value [5] is reported as 1.4%, the “pH at Saturation” value [6] is reported as 6.38 and the solubility at 24 h (physchem) is reported as 400 µg/mL. The XRPD after storage ([7]; 7 days, all storage conditions (ambient light, 40° C./75% RH, 80° C.)) was “No change under all storage”, the “Purity, 40° C./75% RH” value ([7]; HPLC purity after 7 days, open vial, 40° C./75% RH) was 99.4 and the “Purity, 80° C.” value ([7]; HPLC purity after 7 days, open vial, 80° C.) was 99.4. The “Purity, Ambient light” value ([7]; HPLC purity after 7 days, open vial, ambient light, room temperature) was 99.5, the Input purity ([7]; HPLC purity before stress storage) was 99.7 and the “Chemical Stability” value ([7]; summary in Table 17) was “Stable”.
